Laboratory results from patent US9840512B2, “Antidiabetic bicyclic compounds” (Merck Sharp & Dohme Corp., priority 2013, dated 2017).

Molecular target: human GPR40 (Homo sapiens, UniProt O14842)
Assay: Inositol Phosphate Turnover (IP1) Assay 2
Format: cell-based
Design: expressed in transfected cells
Details: HEK cells stably expressing human GPR40, Table 2, read-out: Human IP1
Experimental: Human and mouse GPR40 stable cell-lines were generated in CHO cells stably expressing NFAT BLA (Beta-lactamase). A human GPR40 stable cell-line was generated in HEK cells stably expressing the aequorin expressing reporter. The expression plasmids were transfected using lipofectamine (Life Technologies) following manufacturer's instructions. Stable cell-lines were generated following drug selection.
The assay is performed in 384-well format. HEK cells stably expressing human GPR40 are plated at 15,000 cells per well in growth medium (DMEM/10% fetal calf serum). Cell plates are then incubated 16 hours at 37 degrees in a 5% CO2 incubator.
Measurement of Inositol Phosphate Turnover (IP1) is performed using the CisBio IP-One kit (Part number 62IPAPEB). After the 16 hour incubation, the cells are washed with HEPES buffer and 10 ul of stimulation buffer (prepared as described in the kit) is added to each well. In a separate plate, compounds are diluted in DMSO (400-fold over the final concentration in the assay well) and 25 nl is acoustically transferred to the appropriate well in the assay cell plate. The plates are then incubated for 60 minutes at 37 degrees. 10 ul of detection buffer (also prepared as described in the IP-One kit) is added to each well and the plates are incubated for 60 minutes in the dark. The plates are then read in a Perkin Elmer EnVision or equivalent reader able to measure FRET.

Sequence of human GPR40 (O14842 whole entry): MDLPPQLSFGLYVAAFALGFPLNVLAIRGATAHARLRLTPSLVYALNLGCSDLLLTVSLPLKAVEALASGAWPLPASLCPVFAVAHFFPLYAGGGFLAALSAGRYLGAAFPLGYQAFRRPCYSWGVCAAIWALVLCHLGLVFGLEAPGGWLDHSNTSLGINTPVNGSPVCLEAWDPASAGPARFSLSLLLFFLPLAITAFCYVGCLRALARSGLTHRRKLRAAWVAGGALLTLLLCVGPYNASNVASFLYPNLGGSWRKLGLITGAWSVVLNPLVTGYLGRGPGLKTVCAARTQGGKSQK

SMILES | EC50
COc1ccc(F)c(-c2ccc([C@H]3CCc4ccc([C@@H](CC(=O)O)C5CCC5)cc4O3)cc2)c1 (single isomer, unassigned) [Example 149, (3S)-3-cyclobutyl-3-((R or S)-(2-(2′-fluoro-5′-methoxy-[1,1′-biphenyl]-4-yl)chroman-7-yl)propanoic acid] | 41 nM
COc1ccc(F)c(-c2ccc([C@H]3CCc4ccc([C@H](CC(=O)O)C5CCC5)cc4O3)cc2)c1 (single isomer, unassigned) [Example 150, (3R)-3-cyclobutyl-3-((R or S)-(2-(2′-fluoro-5′-methoxy-[1,1′-biphenyl]-4-yl)chroman-7-yl)propanoic acid] | 660 nM
COc1ccc(F)c(-c2ccc([C@@H]3CCc4ccc([C@@H](CC(=O)O)C5CCC5)cc4O3)cc2)c1 (single isomer, unassigned) [Example 151, (3S)-3-cyclobutyl-3-((R or S)-(2-(2′-fluoro-5′-methoxy-[1,1′-biphenyl]-4-yl)chroman-7-yl)propanoic acid] | 79 nM
COc1ccc(F)c(-c2ccc(C3CCc4ccc(C(C5CCC5)C(C)C(=O)O)cc4O3)cc2)c1 (single isomer, unassigned) [Example 152, (2S,3S)-3-cyclobutyl-3-((R or S)-2-(2′-fluoro-5′-methoxy-[1,1′-biphenyl]-4-yl)chroman-7-yl)-2-methylpropanoic acid] | 774 nM
COc1ccc(F)c(-c2ccc(C3CCc4ccc(C(C5CCC5)C(C)C(=O)O)cc4O3)cc2)c1 (single isomer, unassigned) [Example 153] | 22 nM
COc1ccc(F)c(-c2ccc(C3CCc4ccc(C(C5CCC5)C(C)C(=O)O)cc4O3)cc2)c1 (single isomer, unassigned) [Example 154] | 86 nM
COc1ccc(F)c(-c2ccc(C3CCc4ccc(C(C5CCC5)C(C)C(=O)O)cc4O3)cc2)c1 (single isomer, unassigned) [Example 155] | 1 nM
COc1ccc(F)c(-c2ccc(C3CCc4ccc(C(C5CCC5)C(C)C(=O)O)cc4O3)cc2)c1 (single isomer, unassigned) [Example 156] | 209 nM
COc1ccc(F)c(-c2ccc(C3CCc4ccc(C(C5CCC5)C(C)C(=O)O)cc4O3)cc2)c1 (single isomer, unassigned) [Example 157] | 90 nM
COc1ccc(F)c(-c2ccc(C3CCc4ccc(C(C5CCC5)C(C)C(=O)O)cc4O3)cc2)c1 (single isomer, unassigned) [Example 158] | 132 nM
COc1ccc(F)c(-c2ccc(C3CCc4ccc(C(C5CCC5)C(C)C(=O)O)cc4O3)cc2)c1 (single isomer, unassigned) [Example 159] | 1.8 nM
COc1ccc(F)c(-c2ccc(C3CCc4ccc([C@@H](CC(=O)O)C5CC5)cc4O3)cc2)c1 (stereo partly drawn) [Example 60, (3S)-3-cyclopropyl-3-(2-(2′-fluoro-5′-methoxy-[1,1′-biphenyl]-4-yl)chroman-7-yl)propanoic acid] | 25 nM
COc1cc(-c2ccc(C3CCc4ccc([C@@H](CC(=O)O)C5CC5)cc4O3)cc2)c(F)cn1 (stereo partly drawn) [Example 71] | 11 nM
COc1cc(F)cc(-c2ccc(C3CCc4ccc([C@@H](CC(=O)O)C5CC5)cc4O3)cc2)c1 (stereo partly drawn) [Example 72] | 116 nM
O=C(O)C[C@H](c1ccc2c(c1)OC(c1ccc(-c3cccc(OCC(F)(F)F)c3)cc1)CC2)C1CC1 (stereo partly drawn) [Example 73] | 1200 nM
COc1cc(-c2ccc(C3CCc4ccc([C@@H](CC(=O)O)C5CC5)cc4O3)cc2)ccn1 (stereo partly drawn) [Example 74] | 19 nM
COc1cccc(-c2ccc(C3CCc4ccc([C@@H](CC(=O)O)C5CC5)cc4O3)cc2)n1 (stereo partly drawn) [Example 75] | 304 nM
O=C(O)C[C@H](c1ccc2c(c1)OC(c1ccc(-c3cc(OC(F)(F)F)ccc3F)cc1)CC2)C1CC1 (stereo partly drawn) [Example 76] | 650 nM
COc1cncc(-c2ccc(C3CCc4ccc([C@@H](CC(=O)O)C5CC5)cc4O3)cc2)n1 (stereo partly drawn) [Example 77] | 920 nM
O=C(O)C[C@H](c1ccc2c(c1)OC(c1ccc(-c3cccc(OC4CC4)c3)cc1)CC2)C1CC1 (stereo partly drawn) [Example 78] | 1700 nM
COc1cccc(-c2ccc(C3CCc4ccc([C@@H](CC(=O)O)C5CC5)cc4O3)cc2)c1 (stereo partly drawn) [Example 79] | 22 nM
CSc1cccc(-c2ccc(C3CCc4ccc([C@@H](CC(=O)O)C5CC5)cc4O3)cc2)c1 (stereo partly drawn) [Example 81] | 165 nM
COc1ccc(F)c(-c2ccc(C3CCc4ccc([C@@H](CC(=O)O)C5CC5)cc4O3)cc2)c1F (stereo partly drawn) [Example 82] | 54 nM
CCOc1cc(-c2ccc(C3CCc4ccc([C@@H](CC(=O)O)C5CC5)cc4O3)cc2)ccc1F (stereo partly drawn) [Example 84] | 1520 nM
COc1ccc(F)c(-c2ccc(C3CCc4ccc(C(CC(=O)O)C5CC5)nc4O3)cc2)c1 (stereo not drawn) [Example 136, 3-cyclopropyl-3-(2-(2′-fluoro-5′-methoxy-[1,1′-biphenyl]-4-yl)-3,4-dihydro-2H-pyrano[2,3-b]pyridin-7-yl)propanoic acid] | 217 nM

Same assay, conditions: HEK cells stably expressing human GPR40, Table 3, read-out: Human IP1 activity

SMILES | EC50
COc1ccc(F)c(-c2ccc(C3COc4ccc([C@H](C5CC5)[C@H](C)C(=O)O)cc4O3)nc2)c1 (single isomer, unassigned) [Example 160] | 1.6 nM
COc1ccc(F)c(-c2ccc(C3COc4ccc([C@H](C5CC5)[C@H](C)C(=O)O)cc4O3)nc2)c1 (single isomer, unassigned) [Example 161] | 2.2 nM
COc1ccc(F)c(-c2ccc(C3COc4ccc([C@@H](CC(=O)O)C5CC5)cc4O3)cc2)c1 (single isomer, unassigned) [Example 167] | 31 nM
COc1ccc(F)c(-c2ccc(C3COc4ccc([C@@H](CC(=O)O)C5CC5)cc4O3)cc2)c1 (single isomer, unassigned) [Example 168] | 120 nM
COc1ccc(F)c(-c2ccc(C3COc4ccc([C@H](C5CC5)[C@H](C)C(=O)O)cc4O3)cc2OC(F)(F)F)c1 (single isomer, unassigned) [Example 171] | 2.6 nM
COc1ccc(F)c(-c2ccc(C3COc4ccc([C@H](C5CC5)[C@H](C)C(=O)O)cc4O3)cc2OC(F)(F)F)c1 (single isomer, unassigned) [Example 172] | 6.9 nM
COc1ccc(F)c(-c2ccc(C3COc4ccc([C@H](C5CC5)[C@H](C)C(=O)O)cc4O3)cc2)c1 (single isomer, unassigned) [Example 173] | 1.8 nM
COc1ccc(F)c(-c2ccc(C3COc4ccc([C@H](C5CC5)[C@H](C)C(=O)O)cc4O3)cc2)c1 (single isomer, unassigned) [Example 174] | 0.5 nM
CC#C[C@@H](CC(=O)O)c1ccc2c(c1)OCC(c1ccc(-c3cc(OC)ccc3F)cc1)O2 (single isomer, unassigned) [Example 176] | 774 nM
CC#C[C@@H](CC(=O)O)c1ccc2c(c1)OCC(c1ccc(-c3cc(OC)ccc3F)cc1)O2 (single isomer, unassigned) [Example 177] | 870 nM
COc1ccc(F)c(-c2ccc(C3COc4ccc([C@H](C5CC5)[C@H](C)C(=O)O)c(F)c4O3)cc2)c1 (single isomer, unassigned) [Example 185] | 2 nM
COc1ccc(F)c(-c2ccc(C3COc4ccc([C@H](C5CC5)[C@H](C)C(=O)O)c(F)c4O3)cc2)c1 (single isomer, unassigned) [Example 186] | 7.9 nM
C[C@H](C(=O)O)[C@H](c1ccc2c(c1)OC(C1CN(Cc3cc(C(F)(F)F)ccc3C(F)(F)F)C1)CO2)C1CC1 (single isomer, unassigned) [Example 187] | 1280 nM
C[C@H](C(=O)O)[C@H](c1ccc2c(c1)OC(C1CN(Cc3cc(C(F)(F)F)ccc3C(F)(F)F)C1)CO2)C1CC1 (single isomer, unassigned) [Example 188] | 5.2 nM
COc1ccc(F)c(-c2ccc([C@@H]3COc4ccc([C@H](C5CC5)[C@H](C)C(=O)O)cc4O3)c(C(F)(F)F)n2)c1 [Example 162, (2S,3R)-3-cyclopropyl-3-((R)-3-(6-(2-fluoro-5-methoxyphenyl)-2-(trifluoromethyl)-pyridin-3-yl)-2,3-dihydrobenzo[b][1,4]dioxin-6-yl)-2-methylpropanoic acid] | 8.2 nM
COc1ccc(F)c(-c2ccc([C@@H]3COc4ccc([C@H](C5CC5)[C@H](C)C(=O)O)cc4O3)cc2C(OC)C(C)(C)C)c1 (stereo partly drawn) [Example 163] | 2.1 nM
COc1ccc(F)c(-c2ccc([C@@H]3COc4ccc([C@H](C5CC5)[C@H](C)C(=O)O)cc4O3)nc2C(F)(F)F)c1 [Example 164] | 8.2 nM
COc1ccc(F)c(-c2ccc(C3COc4ccc([C@H](C5CC5)[C@H](C)C(=O)O)cc4O3)cc2)c1 (stereo partly drawn) [Example 170] | 0.17 nM
CC#C[C@@H](CC(=O)O)c1ccc2c(c1)OCC(c1ccc(-c3cc(OC)ccc3F)cc1)O2 (stereo partly drawn) [Example 175] | 220 nM
COc1ccc(F)c(-c2ccc([C@@H]3COc4ccc([C@H](C5CC5)[C@H](C)C(=O)O)cc4O3)cc2Cl)c1 [Example 178] | 10.6 nM
COc1ccc(F)c(-c2ccc([C@H]3COc4ccc([C@H](C5CC5)[C@H](C)C(=O)O)cc4O3)cc2Cl)c1 [Example 179] | 16.3 nM
COc1ccc(F)c(-c2ccc([C@@H]3COc4ccc([C@H](C5CC5)[C@H](C)C(=O)O)cc4O3)cc2-c2cccc3ccn(C)c23)c1 [Example 180] | 4.8 nM
COc1ccc(F)c(-c2ccc([C@H]3COc4ccc([C@H](C5CC5)[C@H](C)C(=O)O)cc4O3)cc2-c2cccc3ccn(C)c23)c1 [Example 181] | 8.3 nM
